Experimental data taken from patent publication US20080063668A1, “Nitroimidazole and terconazole composition and method” (priority 2006, published 2008).

What was measured:
Assay in all cases: Inhibition of bacteria growth, drug dilution tubes, anaerobic
Format in all cases: cell-based
Parameters in all cases: key: (+) for growth; (−) for no growth; (±) for suboptimal growth after an initial observation of growth
[1] = system: Mobiluncus curtisii var. curtisii ATCC 35241
Experimental: (§1) Serial dilutions of tinidazole and terconazole were prepared by adding measured amounts of each substance to water (both individually and in combination). Seven bacterial organisms that are common pathogens in bacterial vaginosis were grown anaerobically in the medium as listed in Table 4 under a N2/H2/CO2 (85:5:10) head space atmosphere. [table] These cultures were diluted to a 0.5 McFarland standard prior to inoculation of drug dilution tubes. One (1) mL of the 0.5 McFarland preparation was inoculated to an anaerobically prepared test tube containing 0.8 mL of Difco anaerobic medium (DAMM) and 0.2 mL of appropriate diluted antimicrobial or antimicrobial combination for a total of 2 mL. The inoculated tubes were then incubated at 37° C. and monitored daily for growth. Growth was scored with a (+) for growth, (−) for no growth, and (±) for suboptimal growth after an initial observation of growth. Tinidazole is abbreviated as TNZ and terconazole is abbreviated as TER in Tables 5 through 11.

[2] = system: Bacteroides fragilis ATCC 25285
Experimental: as §1

[3] = system: Gardnerella vaginalis ATCC 14018
Experimental: as §1

Compound: CCS(=O)(=O)CCn1c([N+](=O)[O-])cnc1C [TNZ, 1-[2-(ethylsulfonyl)ethyl]-2-methyl-5-nitroimidazole]
- growth ([1]; TNZ 2 μg/ml, DAY 1): (+)
- growth ([1]; TNZ 2 μg/ml, DAY 2): (+)
- growth ([1]; TNZ 2 μg/ml, DAY 3): (+)
- growth ([1]; TNZ 2 μg/ml, DAY 4): (+)
- growth ([1]; TNZ 2 μg/ml, DAY 5): (+)
- growth ([1]; TNZ 3.9 μg/ml, DAY 1): (+)
- growth ([1]; TNZ 3.9 μg/ml, DAY 2): (+)
- growth ([1]; TNZ 3.9 μg/ml, DAY 3): (+)
- growth ([1]; TNZ 3.9 μg/ml, DAY 4): (+)
- growth ([1]; TNZ 3.9 μg/ml, DAY 5): (+)
- growth ([1]; TNZ 7.8 μg/ml, DAY 1): (+)
- growth ([1]; TNZ 7.8 μg/ml, DAY 2): (+)
- growth ([1]; TNZ 7.8 μg/ml, DAY 3): (+)
- growth ([1]; TNZ 7.8 μg/ml, DAY 4): (+)
- growth ([1]; TNZ 7.8 μg/ml, DAY 5): (+)
- growth ([1]; TNZ 15.6 μg/ml, DAY 1): (+)
- growth ([1]; TNZ 15.6 μg/ml, DAY 2): (+)
- growth ([1]; TNZ 15.6 μg/ml, DAY 3): (+)
- growth ([1]; TNZ 15.6 μg/ml, DAY 4): (+)
- growth ([1]; TNZ 15.6 μg/ml, DAY 5): (+)
- growth ([1]; TNZ 31.3 μg/ml, DAY 1): (+)
- growth ([1]; TNZ 31.3 μg/ml, DAY 2): (+)
- growth ([1]; TNZ 31.3 μg/ml, DAY 3): (+)
- growth ([1]; TNZ 31.3 μg/ml, DAY 4): (+)
- growth ([1]; TNZ 31.3 μg/ml, DAY 5): (+)
- growth ([1]; TNZ 62.5 μg/ml, DAY 1): (+)
- growth ([1]; TNZ 62.5 μg/ml, DAY 2): (+)
- growth ([1]; TNZ 62.5 μg/ml, DAY 3): (+)
- growth ([1]; TNZ 62.5 μg/ml, DAY 4): (+)
- growth ([1]; TNZ 62.5 μg/ml, DAY 5): (+)
- growth ([1]; TNZ 125 μg/ml, DAY 1): (+)
- growth ([1]; TNZ 125 μg/ml, DAY 2): (+)
- growth ([1]; TNZ 125 μg/ml, DAY 3): (+)
- growth ([1]; TNZ 125 μg/ml, DAY 4): (+)
- growth ([1]; TNZ 125 μg/ml, DAY 5): (+)
- growth ([1]; TNZ 250 μg/ml, DAY 1): (−)
- growth ([1]; TNZ 250 μg/ml, DAY 2): (+)
- growth ([1]; TNZ 250 μg/ml, DAY 3): (+)
- growth ([1]; TNZ 250 μg/ml, DAY 4): (+)
- growth ([1]; TNZ 250 μg/ml, DAY 5): (+)
- growth ([1]; TNZ 500 μg/ml, DAY 1): (−)
- growth ([1]; TNZ 500 μg/ml, DAY 2): (−)
- growth ([1]; TNZ 500 μg/ml, DAY 3): (−)
- growth ([1]; TNZ 500 μg/ml, DAY 4): (−)
- growth ([1]; TNZ 500 μg/ml, DAY 5): (+)
- growth ([2]; TNZ 2 μg/ml, DAY 1): (−)
- growth ([2]; TNZ 2 μg/ml, DAY 2): (−)
- growth ([2]; TNZ 2 μg/ml, DAY 3): (−)
- growth ([2]; TNZ 2 μg/ml, DAY 4): (−)
- growth ([2]; TNZ 2 μg/ml, DAY 5): (+)
- growth ([2]; TNZ 3.9 μg/ml, DAY 1): (−)
- growth ([2]; TNZ 3.9 μg/ml, DAY 2): (−)
- growth ([2]; TNZ 3.9 μg/ml, DAY 3): (−)
- growth ([2]; TNZ 3.9 μg/ml, DAY 4): (−)
- growth ([2]; TNZ 3.9 μg/ml, DAY 5): (−)
- growth ([2]; TNZ 7.8 μg/ml, DAY 1): (−)
- growth ([2]; TNZ 7.8 μg/ml, DAY 2): (−)
- growth ([2]; TNZ 7.8 μg/ml, DAY 3): (−)
- growth ([2]; TNZ 7.8 μg/ml, DAY 4): (−)
- growth ([2]; TNZ 7.8 μg/ml, DAY 5): (−)
- growth ([2]; TNZ 15.6 μg/ml, DAY 1): (−)
- growth ([2]; TNZ 15.6 μg/ml, DAY 2): (−)
- growth ([2]; TNZ 15.6 μg/ml, DAY 3): (−)
- growth ([2]; TNZ 15.6 μg/ml, DAY 4): (−)
- growth ([2]; TNZ 15.6 μg/ml, DAY 5): (−)
- growth ([2]; TNZ 31.3 μg/ml, DAY 1): (−)
- growth ([2]; TNZ 31.3 μg/ml, DAY 2): (−)
- growth ([2]; TNZ 31.3 μg/ml, DAY 3): (−)
- growth ([2]; TNZ 31.3 μg/ml, DAY 4): (−)
- growth ([2]; TNZ 31.3 μg/ml, DAY 5): (−)
- growth ([2]; TNZ 62.5 μg/ml, DAY 1): (−)
- growth ([2]; TNZ 62.5 μg/ml, DAY 2): (−)
- growth ([2]; TNZ 62.5 μg/ml, DAY 3): (−)
- growth ([2]; TNZ 62.5 μg/ml, DAY 4): (−)
- growth ([2]; TNZ 62.5 μg/ml, DAY 5): (−)
- growth ([2]; TNZ 125 μg/ml, DAY 1): (−)
- growth ([2]; TNZ 125 μg/ml, DAY 2): (−)
- growth ([2]; TNZ 125 μg/ml, DAY 3): (−)
- growth ([2]; TNZ 125 μg/ml, DAY 4): (−)
- growth ([2]; TNZ 125 μg/ml, DAY 5): (−)
- growth ([2]; TNZ 250 μg/ml, DAY 1): (−)
- growth ([2]; TNZ 250 μg/ml, DAY 2): (−)
- growth ([2]; TNZ 250 μg/ml, DAY 3): (−)
- growth ([2]; TNZ 250 μg/ml, DAY 4): (−)
- growth ([2]; TNZ 250 μg/ml, DAY 5): (−)
- growth ([2]; TNZ 500 μg/ml, DAY 1): (−)
- growth ([2]; TNZ 500 μg/ml, DAY 2): (−)
- growth ([2]; TNZ 500 μg/ml, DAY 3): (−)
- growth ([2]; TNZ 500 μg/ml, DAY 4): (−)
- growth ([2]; TNZ 500 μg/ml, DAY 5): (−)
- growth ([3]; TNZ 2 μg/ml, DAY 1): (+)
- growth ([3]; TNZ 2 μg/ml, DAY 2): (+)
- growth ([3]; TNZ 2 μg/ml, DAY 3): (+)
- growth ([3]; TNZ 2 μg/ml, DAY 4): (+)
- growth ([3]; TNZ 2 μg/ml, DAY 5): (+)
- growth ([3]; TNZ 3.9 μg/ml, DAY 1): (+)
- growth ([3]; TNZ 3.9 μg/ml, DAY 2): (+)
- growth ([3]; TNZ 3.9 μg/ml, DAY 3): (+)
- growth ([3]; TNZ 3.9 μg/ml, DAY 4): (+)
- growth ([3]; TNZ 3.9 μg/ml, DAY 5): (+)
- growth ([3]; TNZ 7.8 μg/ml, DAY 1): (−)
- growth ([3]; TNZ 7.8 μg/ml, DAY 2): (+)
- growth ([3]; TNZ 7.8 μg/ml, DAY 3): (+)
- growth ([3]; TNZ 7.8 μg/ml, DAY 4): (+)
- growth ([3]; TNZ 7.8 μg/ml, DAY 5): (+)
- growth ([3]; TNZ 15.6 μg/ml, DAY 1): (−)
- growth ([3]; TNZ 15.6 μg/ml, DAY 2): (+)
- growth ([3]; TNZ 15.6 μg/ml, DAY 3): (+)
- growth ([3]; TNZ 15.6 μg/ml, DAY 4): (+)
- growth ([3]; TNZ 15.6 μg/ml, DAY 5): (+)
- growth ([3]; TNZ 31.3 μg/ml, DAY 1): (−)
- growth ([3]; TNZ 31.3 μg/ml, DAY 2): (−)
- growth ([3]; TNZ 31.3 μg/ml, DAY 3): (−)
- growth ([3]; TNZ 31.3 μg/ml, DAY 4): (−)
- growth ([3]; TNZ 31.3 μg/ml, DAY 5): (−)
- growth ([3]; TNZ 62.5 μg/ml, DAY 1): (−)
- growth ([3]; TNZ 62.5 μg/ml, DAY 2): (−)
- growth ([3]; TNZ 62.5 μg/ml, DAY 3): (−)
- growth ([3]; TNZ 62.5 μg/ml, DAY 4): (−)
- growth ([3]; TNZ 62.5 μg/ml, DAY 5): (−)
- growth ([3]; TNZ 125 μg/ml, DAY 1): (−)
- growth ([3]; TNZ 125 μg/ml, DAY 2): (−)
- growth ([3]; TNZ 125 μg/ml, DAY 3): (−)
- growth ([3]; TNZ 125 μg/ml, DAY 4): (−)
- growth ([3]; TNZ 125 μg/ml, DAY 5): (−)
- growth ([3]; TNZ 250 μg/ml, DAY 1): (−)
- growth ([3]; TNZ 250 μg/ml, DAY 2): (−)
- growth ([3]; TNZ 250 μg/ml, DAY 3): (−)
- growth ([3]; TNZ 250 μg/ml, DAY 4): (−)
- growth ([3]; TNZ 250 μg/ml, DAY 5): (−)
- growth ([3]; TNZ 500 μg/ml, DAY 1): (−)
- growth ([3]; TNZ 500 μg/ml, DAY 2): (−)
- growth ([3]; TNZ 500 μg/ml, DAY 3): (−)
- growth ([3]; TNZ 500 μg/ml, DAY 4): (−)
- growth ([3]; TNZ 500 μg/ml, DAY 5): (−)
